This is an account of results in patent US6875608B1, “Propagation and/or derivation of embryonic stem cells” (University of Edinburgh, priority 1998, dated 2005).

The subject of one assay is IOUD2 ES cells. In words: Aggregate (embryoid body) culture, staining for Oct4 β-galactosidase. Type of assay: cell-based, mouse. The source says: Aggregation induces ES cells to differentiate and form structures known as embryoid bodies that contain multiple differentiated cell types. Undifferentiated cells are largely or wholly eliminated during embryoid formation due to induced differentiation and/or apoptosis.
IOUD2 ES cells, which carry a targeted integration of βgeo into the Oct4 locus were used to enable visualisation of undifferentiated cells by histochemical staining for β-galactosidase. Aggregates were formed in hanging drops by seeding 100 cells/20 μl drop in the presence of 0, 25, 50, 75 or 100 μm PD089059. Aggregates were maintained for 6 days, then transferred to gelatin-coated dishes and allowed to attach overnight. Cultures were then fixed and stained for β-galactosidase activity. In the absence of the Mek inhibitor, the embryoid bodies were well differentiated and very few Oct4 β-galactosidase expressing cells were present in the outgrowths. […] At PD089059 concentrations of 75-100 μm, the great majority of cells were undifferentiated.

Another assay relates to ERK1 and ERK2. In words: PD098059 dependent inhibition of ERK activation (immunoblot with phosphospecific anti-ERK antibodies). Type of assay: cell-based, mouse. Particulars: GRgp(278) cells, 48 hours inhibitor plus LIF, then G-CSF 30 ng/ml 10 minutes. The protocol:
For analysis of STAT3 and ERK phosphorylation, 1×10^6 ES cells were plated per well of 6-well dishes. Cells were serum starved and treated with cytokines as described above and then lysed in 100 μl SDS sample buffer. Ten microlitre aliquots were fractionated on a 10% SDS polyacrylamide gel, electroblotted onto nitrocellulose and probed with anti-ERK and anti-STAT3 antibodies according to the directions provided by supplier (New England Biolabs).
The continued proliferation of undifferentiated ES cells at inhibitory concentrations of PD098059 confirms that gp130-dependent activation of ERK1 and ERK2 is not required for the propagation of ES cells.
For orientation: A western blot detects proteins with antibodies after separation by electrophoresis.

In another assay the test system is ZIN40 ES cells. In words: Chimaera analysis of ES cell pluripotency. It counts as in vivo. Particulars: 48 hours LIF plus 25 μM PD098059, 24 hours LIF only, injected into mouse blastocysts, day 9.5. As for the experimental part:
ZIN40 ES cells were treated wit 25 μM PD098059 plus 5 U/ml LIF for 48 hours, re-fed with medium containing LIF for a further 24 hours and than microinjected into C57BL/6 blastcysts. Embryos were collected at day 9.5 of pregnancy and stained for β-galactosidase activity.
ZIN40 ES cells were injected into C57BL/6 blastocysts and transferred into pseudopregnant mice. Mice were sacrificed at day 9.5 of pregnancy and the embryos were stained with X-gal.
We therefore determined whether ES cells propagated in the absence of gp130-dependent ERK. signaling have the capacity to incorporate into the developing embryo and differentiate appropriately. Cells were cultured at low density (1000 cell/cm^2) for 48 hours in the presence of LIF plus 25 μM PD098059, or in the absence of LIF. They were then re-fed with medium containing LIF but lacking the inhibitor for a further 24 hours before microinjection into mouse blastocysts. ZIN40 cells were used in this experiment, since they carry a nuclear localised β-galactosidase marker that is widely expressed in differentiated cell types. […] However, cells cultured in the absence of LIF for 48 hours were incapable of colonizing the embryo.

In assay [1] the target is T1, GRgp(278) chimeric receptor (UniProt Q00560+Q99062).
T1 construct: fusing the extracellular domain of the human G-CSFR to an EcoRI fragment of mouse gp130; an EcoRI fragment of mouse gp130 containing the transmembrane domain and the entire cytoplasmic region; expressed in transfected cells
T1 sequence (Q00560 640-917 limits assumed, change not shown, one chain of several): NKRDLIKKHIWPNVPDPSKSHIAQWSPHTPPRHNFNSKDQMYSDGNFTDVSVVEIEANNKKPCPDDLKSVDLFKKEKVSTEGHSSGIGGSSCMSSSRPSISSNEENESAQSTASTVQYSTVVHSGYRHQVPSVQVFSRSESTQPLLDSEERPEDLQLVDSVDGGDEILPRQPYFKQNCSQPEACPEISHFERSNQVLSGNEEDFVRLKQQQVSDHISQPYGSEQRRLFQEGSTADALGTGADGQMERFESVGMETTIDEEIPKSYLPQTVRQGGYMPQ
In words: Self-renewal response of GRgp130 transfectants to G-CSF. It counts as cell-based. Particulars: GRgp(278) transfectants, 6 days, 300 fg-30 ng/ml G-CSF. As for the experimental part:
(§1) Photomicrographs were taken of X-gal stained, representive colonies formed by GRgp(278) and GRgp(Y118F) transfectants after 6 days culture with 300 fg, 30 pg and 30 ng/ml of G-CSF. Photomicrographs were also taken of representative colonies formed by GRgp(278) and GRgp(Y118F) transfectants after 6 days culture with no cytokine, IL-6 (100 ng/ml+sIL-6R), G-CSF(30 ng/ml) or, IL-6(100 ng/ml+sIL-6R) and G-CSF(30 ng/ml).
(§2) All assays were performed in triplicate.

Assay [2] concerns the target T2, GRgp(Y118F) chimeric receptor (UniProt Q00560+Q99062, Y757F).
T2 construct: fusing the extracellular domain of the human G-CSFR to an EcoRI fragment of mouse gp130; an EcoRI fragment of mouse gp130 containing the transmembrane domain and the entire cytoplasmic region; expressed in transfected cells
T2 sequence (Q99062+Q00560 with tags, fused parts or gaps Q00560:Y757F): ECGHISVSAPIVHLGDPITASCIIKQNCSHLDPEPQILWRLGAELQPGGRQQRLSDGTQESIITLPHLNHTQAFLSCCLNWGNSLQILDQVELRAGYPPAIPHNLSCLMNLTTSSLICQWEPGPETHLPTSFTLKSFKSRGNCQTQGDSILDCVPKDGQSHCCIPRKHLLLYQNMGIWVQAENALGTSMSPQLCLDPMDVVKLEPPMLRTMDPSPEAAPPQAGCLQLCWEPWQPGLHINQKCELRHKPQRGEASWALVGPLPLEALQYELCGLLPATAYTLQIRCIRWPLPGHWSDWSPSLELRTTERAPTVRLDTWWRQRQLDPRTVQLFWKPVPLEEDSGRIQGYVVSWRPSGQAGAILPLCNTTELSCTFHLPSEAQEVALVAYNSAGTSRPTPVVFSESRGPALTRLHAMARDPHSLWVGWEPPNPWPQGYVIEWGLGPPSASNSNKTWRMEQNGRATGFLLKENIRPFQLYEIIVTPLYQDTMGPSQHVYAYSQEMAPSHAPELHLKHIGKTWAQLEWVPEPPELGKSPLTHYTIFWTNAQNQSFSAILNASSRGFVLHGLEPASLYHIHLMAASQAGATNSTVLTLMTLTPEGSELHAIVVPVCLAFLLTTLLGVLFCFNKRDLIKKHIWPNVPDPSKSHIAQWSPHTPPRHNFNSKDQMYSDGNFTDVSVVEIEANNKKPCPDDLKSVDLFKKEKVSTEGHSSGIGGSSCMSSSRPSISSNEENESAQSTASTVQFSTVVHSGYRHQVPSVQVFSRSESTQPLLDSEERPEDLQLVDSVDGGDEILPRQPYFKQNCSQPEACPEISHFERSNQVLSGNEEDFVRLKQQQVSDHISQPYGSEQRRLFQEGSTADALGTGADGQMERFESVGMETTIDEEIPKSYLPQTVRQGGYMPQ
The description is as above. To be noted: GRgp(Y118F) ES cells, 6 days, 300 fg-30 ng/ml G-CSF. It counts as cell-based. The protocol:
as §1, §2

Description for D027 ES cells: Data were collected as means±s.e.m for duplicate determinations of triplicate samples normalized relative to the response to LIF. […] Data was collected as means±s.e.m for duplicate determinations of triplicate samples normalized relative to the maximum response of cells to treatment with LIF(111 U/ml) plus vehicle.
Expression of β-galactosidase from the Oct-4 locus in D027 cells was quantitated in an ONPG assay. Cells were plated at 5000 per well in a 24-well dishes and cultured for 6 days in the presence or absence of cytokine. When cells were treated with PD098059, they were plated at 2500 per well and cultured overnight in normal growth medium prior to addition of the inhibitor. On day 6, cells were washed once with PBS and lysed in 0.4 ml of 0.25 M Tris pH 7.5, 0.5 mM DTT, 0.5 % NP40. Lysate (40 μl) was mixed with 100 μl of ONPG buffer (60 mM Na2HPO4, 40 mM NaH2PO4, 10 mM KCl, 1 mM MgCl2, 50 mM 2-mercaptoethanol, 1.2 mM ONPG) in a microtitre plate, incubated at 37° C. for 2-4 hours and the absorbance was read at 420 nm. All assays were performed in triplicate.
D027 cells have a LacZ gene inserted within the stem cell specific gene, Oct-4. As a consequence, expression of this integrated reporter gene is restricted to undifferentiated ES cells and the resulting β-galactosidase activity provides a measure of stem cell self-renewal.
To test this hypothesis, D027 cells were cultured in the presence of the specific MEK inhibitor, PD098059. A sub-saturating concentration of LIF (5 U/ml) was used in these experiments to increase these sensitivity of the assay to changes in self-renewal signaling.
Self-renewal ES cells was assayed flowing treatment with 0.1-100 U/ml LIF either in the presence of 25 μM PD098059 or vehicle (02% DMSO).

For the molecule `COc1cccc(-c2cc(=O)c3ccccc3o2)c1N` [PD098059], in the assay with IOUD2 ES cells (0, 25, 50, 75 or 100 μm, aggregates 6 days, no inhibitor as control), the “representation of undifferentiated β-galactosidase positive cells” value is recorded as “increased in a dose dependent fashion”. Moreover, the concentration at which the great majority of cells were undifferentiated with IOUD2 ES cells (aggregates maintained 6 days) fell in the range of 75 to 100 µM. Further, in the assay on ERK1 and ERK2, the “concentration at which G-CSF dependent phosphorylation of ERK1 and ERK2 was effectively blocked” value was 25 µM; the “concentration range over which G-CSF dependent phosphorylation of ERK1 and ERK2 was progressively reduced” value lay within 3 to 12 µM. For the same molecule, the “contribution of treated ES cells to chimaeras (β-galactosidase staining of mid-gestation embryos)” value in the assay on ZIN40 ES cells is “contributed to chimaeras”. Moreover, in the assay with D027 ES cells (25 μM PD098059 versus vehicle, 0.1-100 U/ml LIF), the “effect on dose response of ES cells to LIF (β-galactosidase activity)” value is on record as “increased the level of β-galactosidase activity at all concentrations of LIF”. Besides, in the assay on D027 ES cells (3-25 μM PD098059, sub-saturating LIF (5 U/ml)), the “effect on ES cell self-renewal compared with vehicle alone” value is “did not inhibit self-renewal”. The “effect on differentiation of ES cells in the absence of LIF” value with D027 ES cells (absence of LIF) is given as “did not block the differentiation of ES cells”. For the same molecule, the “concentration at which maximum level of self-renewal is achieved” value in the assay on D027 ES cells (sub-saturating LIF (5 U/ml), dose dependent increase) is 12 to 25 µM.

B1: G-CSF: cytokine ligand used to stimulate chimaeric G-CSFR/gp130 receptors in ES cell transfectants (protein, UniProt P09919 31-207, looked up)
Granulocyte …: TPLGPASSLPQSFLLKCLEQVRKIQGDGAALQEKLVSECATYKLCHPEELVLLGHSLGIPWAPLSSCPSQALQLAGCLSQLHSGLFLYQGLLQALEGISPELGPTLDTLQLDVADFATTIWQQMEELGMAPALQPTQGAMPAFASAFQRRAGGVLVASHLQSFLEVSYRVLRHLAQP
Turning to B1, the “G-CSF concentration at which self-renewal reaches a plateau” value in assay [1] lay within 3 to 30 ng/mL. Moreover, the “G-CSF concentration at which maximal self-renewal response was achieved” value in assay [2] worked out at 30 pg/mL.
